In patent publication US8592405B2, “Synergistic antimicrobial composition” (Dow Global Technologies LLC, priority 2009, dated 2013):

Columns and labels:
Assay type in all cases: cell-based
[1] = system: An + Pf (Aspergillus niger + Penicillium funiculosum); assay: Fungal efficacy testing, modified ASTM 5590 (6-well, mixed inoculum, Example 4); conditions: four weeks; for Total conc, ppm: An + Pf mixed inoculum, NE = no end point at the concentration tested; for % inhibition: An + Pf, at the Total conc
Procedure: (§1) The SI is calculated based on F. C. Kull et.
(§2) A single or blend of biocides was post added into white acrylic latex paint free of biocides to give a maximum total active ingredient/s concentration tested. This paint was then diluted with a biocide free acrylic latex paint at concentrations range of 75 to 12.5% w/w to give desired concentrations for the testing. Depending on the type of biocide blends tested, the total biocides concentrations varies from 200 to 5000 ppm. After biocides addition or dilution each sample was hand mixed for at least a minute until uniformity is achieved. Each of the paint samples as well as a control sample (containing no biocide) were used to prepare films on black plastic-vinyl chloride/acetate copolymer panels (LENETA, Mahwah, N.J.) using a 3 mil bird bar applicator. The panels were thoroughly dried for at least 2 days avoiding direct exposure to sunlight. Square discs (0.5 inch^2, 13 mm^2) were cut out from each panel and were used as the substrate for fungal and algal efficacy tests. This sample size allowed for an agar border when the sample disc was placed into the well of the test plate. Each sample was tested in duplicate
(§3) The appropriate media (BOLD'S 3N for Chlorophytes, BG-11 for Cyanobacteria, and PDA for fungi) were used to support microbial growth. The test plates were maintained at room temp (25° C.-26° C.), in a cycled light-dark environment, for four weeks for algae. Plates for fungal challenge tests were maintained at 30 C for four weeks. At the end of the incubation period the samples were scored for percent area covered by visible microbial growth.
(§4) ASTM 5590 is a standard accelerated test method for determining resistance of various coatings (including paints) to fungal defacement. To accommodate for high-throughput screening, this method was scaled down from petri plates to 6-well plates. To set up the test, an agar plug was placed at the bottom of each well of the sterile 6-well plate. A single coupon was placed with a pair of sterile forceps at the center of the agar plug (on top) with the painted surface facing upwards. Fungal inoculums were prepared by mixing equal concentrations (1×10^6 cfu/ml) and equal volumes (depending on number of samples to be tested) of like growing organisms. Cladosporium herbarum was mixed with Aureobasidium pullulans. Aspergillus niger was mixed with Penicillium funiculosum. Alternaria alternata was mixed with Trichoderma viride. Each well was inoculated with 400 μl of organism mixture (1×10^6 cfu/ml) making sure that the whole surface (paint film as well as the agar surrounding it) was evenly covered. The plates were incubated at 30° C. in presence of moisture, for a period of four weeks. The total percent area covered was evaluated and recorded at the end of each week after the 2nd week and recorded in increments of 5%.

[2] = system: Ch + Tv (Cladosporium herbarum + Trichoderma viride); assay: as above; conditions: four weeks
Procedure: [The source words this procedure for another target and reports this target under the same test.] as §1, §2, §3, §4

Trichoderma viride (Tv) = assay: Fungal efficacy testing, modified ASTM 5590 (12-well, dry paint film); conditions: three weeks; for % inhibition: at the Total conc; for Total conc, ppm: total biocide in paint taken as minimum inhibitory concentration, 30 C
Procedure: (§5) Samples of white acrylic latex paint free of biocides were prepared in 50 ml aliquots. Each biocide was post added to give the necessary active ingredient concentration in the paint. The total biocides concentrations tested were 750, 1500, 2500 and 5000 ppm. After biocides addition, each sample was hand mixed for a minimum of 30 sec, followed by a 3 min run on the paint shaker (RED DEVIL). Each of the paint samples as well as a control sample (containing no biocide) were used to prepare films on black plastic-vinyl chloride/acetate copolymer panels (LENETA, Mahwah, N.J.) using a 3 mil bird bar applicator. The panels were thoroughly dried for 5 days avoiding direct exposure to sunlight. Square discs (15 mm^2) were cut out from each panel and were used as the substrate for fungal and algal efficacy tests. This sample size allowed for an agar border when the sample disc was placed into the well of the test plate.
(§6) The appropriate media (BOLD'S 3N for Chlorophytes, BG-11 for Cyanobacteria, and PDA for fungi) were used to support microbial growth. The test plates were maintained at room temp (25° C.-26° C.), in a cycled light-dark environment, for 3 weeks for algae. Plates for fungal challenge tests were maintained at 30C for three weeks. At the end of incubation period the samples were scored for percent area covered by visible microbial growth.
as §4, with “12-well” for “6-well”, “upwards.” for “upwards. Fungal inoculums were prepared by mixing equal concentrations (1×10^6 cfu/ml) and equal volumes (depending on number of samples to be tested) of like growing organisms. Cladosporium herbarum was mixed with Aureobasidium pullulans. Aspergillus niger was mixed with Penicillium funiculosum. Alternaria alternata was mixed with Trichoderma viride.”, “150” for “400”, “organism” for “organism mixture”, “three” for “four”
as §1

Gleocapsa sp. (Gs) = assay: Algal efficacy testing, modified ASTM 5589 (12-well, dry paint film); conditions: three weeks; for % inhibition: at the Total conc; for Total conc, ppm: total biocide in paint taken as minimum inhibitory concentration
Procedure: as §5, §6
ASTM 5589 is a standard accelerated test method for determining resistance of various coatings (including paints) to algal defacement. To accommodate for high-throughput screening, this method was scaled down from petri plates to 12-well plates. A single coupon was placed with a pair of sterile forceps at the center of the agar plug (on top) with the painted surface facing upwards. Each well was inoculated with 150 μl of organism (1×10^8 cfu/ml) making sure that the whole surface (paint film as well as the agar surrounding it) was evenly covered. The plates were incubated at room temp (25° C.-26° C.) with cyclic exposure to light (OTT-Lite model #OTL4012P, 40 Watt, 26 KLumen) and dark phases, for a period of three weeks. The total area covered was evaluated at the end of each week according to percent area covered in 5% increments. While rating the plates, notations were made for zones of inhibition.
as §1

Row | SMILES | Total conc, ppm [1] [ppm] | % inhibition [1] [%] | Total conc, ppm ([2]; Ch + Tv mixed inoculum, NE = no end point at the concentration tested) [ppm] | % inhibition ([2]; Ch + Tv, at the Total conc) [%] | % inhibition (Trichoderma viride (Tv)) [%] | Total conc, ppm (Trichoderma viride (Tv)) [ppm] | % inhibition (Gleocapsa sp. (Gs)) [%] | Total conc, ppm (Gleocapsa sp. (Gs)) [ppm]
1 | CN(C)C(=O)Nc1cccc(C(F)(F)F)c1 [Fluometuron, 1,1-dimethyl-3-(α,α,α-trifluoro-m-tolyl)urea] | 5000 | 0 | 5000 | 0 | – | – | – | –
2 | CCCCCCCCn1sc(Cl)c(Cl)c1=O [DCOIT, 4,5-dichloro-2-n-octyl-4-isothiazolin-3-one] | – | – | – | – | 60 | 2500 | 77.5 | 2500
3 | Cc1ccc(S(=O)(=O)C(I)I)cc1 [DIMTS, diiodomethyl-p-tolylsulfone] | 1250 | 100 | – | – | 90 | 750 | 80 | 2500
